This is an account of results in patent US9938260B2, “Soluble guanylate cyclase activators and their use” (GlaxoSmithKline Intellectual Property Development Limited, priority 2014, dated 2018).

The assay deals with T1, soluble guanylate cyclase (sGC) (Rattus norvegicus, UniProt P20595).
T1 construct: endogenous in cells; host or cells: primary rat aortic smooth muscle cells
T1 sequence (P20595 1-619): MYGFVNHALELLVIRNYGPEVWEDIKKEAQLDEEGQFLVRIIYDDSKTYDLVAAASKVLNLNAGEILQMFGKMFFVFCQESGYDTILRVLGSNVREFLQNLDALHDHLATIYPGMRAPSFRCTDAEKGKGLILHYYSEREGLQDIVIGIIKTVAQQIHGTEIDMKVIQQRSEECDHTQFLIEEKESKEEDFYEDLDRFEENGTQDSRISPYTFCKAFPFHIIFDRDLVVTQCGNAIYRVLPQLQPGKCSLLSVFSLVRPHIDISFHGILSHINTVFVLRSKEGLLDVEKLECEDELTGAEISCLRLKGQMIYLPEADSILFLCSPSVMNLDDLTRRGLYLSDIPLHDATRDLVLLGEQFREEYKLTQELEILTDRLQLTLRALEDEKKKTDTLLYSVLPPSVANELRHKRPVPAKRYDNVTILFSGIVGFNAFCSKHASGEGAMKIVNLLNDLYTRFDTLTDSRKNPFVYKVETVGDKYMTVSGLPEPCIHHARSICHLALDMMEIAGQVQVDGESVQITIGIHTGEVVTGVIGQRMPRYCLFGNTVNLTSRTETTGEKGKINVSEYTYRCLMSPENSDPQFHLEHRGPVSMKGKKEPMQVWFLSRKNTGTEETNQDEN
T1 sequence (P19686 1-690 partner): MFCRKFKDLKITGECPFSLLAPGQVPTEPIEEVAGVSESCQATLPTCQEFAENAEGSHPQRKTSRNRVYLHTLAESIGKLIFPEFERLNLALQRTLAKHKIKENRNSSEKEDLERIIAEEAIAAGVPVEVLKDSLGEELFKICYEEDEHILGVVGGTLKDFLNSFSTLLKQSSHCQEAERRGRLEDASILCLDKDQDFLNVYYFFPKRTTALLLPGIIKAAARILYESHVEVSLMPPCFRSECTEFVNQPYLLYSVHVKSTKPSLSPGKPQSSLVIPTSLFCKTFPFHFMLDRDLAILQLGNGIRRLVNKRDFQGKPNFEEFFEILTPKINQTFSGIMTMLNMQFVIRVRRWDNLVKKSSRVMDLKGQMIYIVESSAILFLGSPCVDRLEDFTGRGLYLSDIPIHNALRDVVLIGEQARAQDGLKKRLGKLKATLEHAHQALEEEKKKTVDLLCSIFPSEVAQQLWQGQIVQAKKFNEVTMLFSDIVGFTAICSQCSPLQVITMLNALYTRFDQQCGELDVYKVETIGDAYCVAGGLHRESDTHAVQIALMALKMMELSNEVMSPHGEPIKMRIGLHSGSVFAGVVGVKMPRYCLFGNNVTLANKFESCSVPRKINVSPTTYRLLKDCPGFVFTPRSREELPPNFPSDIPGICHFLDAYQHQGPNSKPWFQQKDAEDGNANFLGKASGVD
Kind of assay: Biological cellular assay: sGC activity by phosphorylation of VASP in rat aortic smooth muscle cells. The conditions noted are these: primary rat aortic smooth muscle cells, pre-incubated with 10 μM ODQ, 30 min at 37° C., phospho-VASP (pSer239) fluorescent signal; read-out: Cell assay pEC50 (converted). The format is cell-based. The protocol:
The activity of soluble guanylate cyclase (sGC) was tested in an assay based on measuring phosphorylation of the protein kinase G (PKG) substrate vasodilator-stimulated phosphoprotein (VASP) in rat aortic smooth muscle cells. […] Dimethylsulfoxide (DMSO) vehicle and varying concentrations of the compound to be tested were then added. Following a 30 min incubation at 37° C., media was aspirated and the cells were rinsed with phosphate-buffered saline (PBS) and fixed with 4% formaldehyde in PBS by incubating at room temperature for 20 min. Cells were then washed with PBS and permeabilized for 10 min using 0.1% triton X-100 in PBS. Following PBS rinsing, the cells were blocked for 90 min at room temperature with blocking buffer. The buffer was aspirated and the cells were treated overnight at 4° C. with primary antibody (pSer239-VASP, rabbit polyclonal Ab) diluted 1:500 in blocking buffer. Following three washes with 0.05% Tween 20, the cells were treated for 1 h at room temperature with a fluorescent labeled secondary antibody (IRDye® 800CW Donkey Anti-Rabbit IgG) diluted 1:2500 in blocking buffer with 0.05% Tween 20. Following two washes with PBS, infrared fluorescence was measured using an Odyssey Infrared Imaging System. The activity of a test compound was determined as the pEC50 value which is the concentration able to increase by 50% (vs. Bmax) the phospho-VASP fluorescent signal. Front. Pharmacol., 5 Jul. 2012|doi: 10.3389/fphar.2012.00128, Volume 3 July, 2012, Article number 128.

Structures can show the parent of a compound that is named as a salt.

With `Cc1cc(C2CCN(C(=O)CC3CC3)CC2)ccc1COc1c(F)cc(F)cc1-c1cccc(N2CCC(C(=O)O)CC2)n1` [Example 66, 1-(6-(2-((4-(1-(2-cyclopropylacetyl)piperidin-4-yl)-2-methylbenzyl)oxy)-3,5-difluorophenyl)pyridin-2-yl)piperidine-4-carboxylic acid, Sodium salt], the EC50 was 0.316 nM.
As to `Cc1cc(C2CCN(C(=O)[C@@H]3CCOC3)CC2)ccc1COc1c(F)cc(F)cc1-c1cccc(N2CCC(C(=O)O)CC2)n1` [Example 73, (R)-1-(6-(3,5-difluoro-2-((2-methyl-4-(1-(tetrahydrofuran-3-carbonyl)piperidin-4-yl)benzyl)oxy)phenyl)pyridin-2-yl)piperidine-4-carboxylic acid, Sodium salt], the EC50 is 0.0891 nM.
The same measure for `Cc1cc(C2CCN(C(=O)CO)CC2)ccc1COc1c(F)cc(F)cc1-c1cccc(N2CCC(C(=O)O)CC2)n1` [Example 57, 1-(6-(3,5-difluoro-2-((4-(1-(2-hydroxyacetyl)piperidin-4-yl)-2-methylbenzyl)oxy)phenyl)pyridin-2-yl)piperidine-4-carboxylic acid, Sodium salt]: 0.0794 nM; for `Cc1cc(C2CCN(C(=O)[C@H]3CCOC3)CC2)ccc1COc1c(F)cc(F)cc1-c1cccc(N2CCC(C(=O)O)CC2)n1` [Example 72, (S)-1-(6-(3,5-difluoro-2-((2-methyl-4-(1-(tetrahydrofuran-3-carbonyl)piperidin-4-yl)benzyl)oxy)phenyl)pyridin-2-yl)piperidine-4-carboxylic acid, Sodium salt]: 0.427 nM; for `Cc1cc(C2CCN(C3CC3)CC2)ccc1COc1c(F)cc(F)cc1-c1cccc(N2CCC(C(=O)O)CC2)n1` [Example 45, 1-(6-(2-((4-(1-cyclopropylpiperidin-4-yl)-2-methylbenzyl)oxy)-3,5-difluorophenyl)pyridin-2-yl)piperidine-4-carboxylic acid, Sodium salt]: 3.16 nM.
Turning to `Cc1cc(C2CCN(CCO)CC2)ccc1COc1c(F)cc(F)cc1-c1cccc(N2CCC(C(=O)O)CC2)n1` [Example 51, 1-(6-(3,5-difluoro-2-((4-(1-(2-hydroxyethyl)piperidin-4-yl)-2-methylbenzyl)oxy)phenyl)pyridin-2-yl)piperidine-4-carboxylic acid, Sodium salt], the EC50 was 31.6 nM.
On to `COCCN1CCC(c2ccc(COc3c(F)cc(F)cc3-c3cccc(N4CCC(C(=O)O)CC4)n3)c(C)c2)CC1` [Example 48, 1-(6-(3,5-difluoro-2-((4-(1-(2-methoxyethyl)piperidin-4-yl)-2-methylbenzyl)oxy)phenyl)pyridin-2-yl)piperidine-4-carboxylic acid, Sodium salt], for which the EC50 is 15.8 nM.
For `Cc1cc(C2CCN(C(=O)CC(=O)O)CC2)ccc1COc1c(F)cc(F)cc1-c1cccc(N2CCC(C(=O)O)CC2)n1` [Example 81, 1-(6-(2-((4-(1-(2-carboxyacetyl)piperidin-4-yl)-2-methylbenzyl)oxy)-3,5-difluorophenyl)pyridin-2-yl)piperidine-4-carboxylic acid, di-Sodium salt], the EC50 is 15.8 nM.
For the molecule `Cc1nc(C2CCN(CC3CCOC3)CC2)ccc1COc1c(F)cc(F)cc1-c1cccc(N2CCC(C(=O)O)CC2)n1` (stereo not drawn) [Example 23, 1-(6-(3,5-difluoro-2-((2-methyl-6-(1-((tetrahydrofuran-3-yl)methyl)piperidin-4-yl)pyridin-3-yl)methoxy)phenyl)pyridin-2-yl)piperidine-4-carboxylic acid], the EC50 was 251 nM.
For the molecule `Cc1cc(C2CCN(C3COC3)CC2)ccc1COc1c(F)cc(F)cc1-c1cccc(N2CCC(C(=O)O)CC2)n1` [Example 39, 1-(6-(3,5-difluoro-2-((2-methyl-4-(1-(oxetan-3-yl)piperidin-4-yl)benzyl)oxy)phenyl)pyridin-2-yl)piperidine-4-carboxylic acid, Sodium salt], the EC50 was 0.794 nM.
Turning to `COCC(=O)N1CCC(c2ccc(COc3c(F)cc(F)cc3-c3cccc(N4CCC(C(=O)O)CC4)n3)c(C)c2)CC1` [Example 60, 1-(6-(3,5-difluoro-2-((4-(1-(2-methoxyacetyl)piperidin-4-yl)-2-methylbenzyl)oxy)phenyl)pyridin-2-yl)piperidine-4-carboxylic acid, Sodium salt], the EC50 is 0.126 nM.
The same measure for `O=C(O)C1CCN(c2cccc(-c3cc(F)cc(F)c3OCc3ccc(C4CCN(CC(F)(F)F)CC4)cc3OC3COC3)n2)CC1` [Example 90, 1-(6-(3,5-difluoro-2-((2-(oxetan-3-yloxy)-4-(1-(2,2,2-trifluoroethyl)piperidin-4-yl)benzyl)oxy)phenyl)pyridin-2-yl)piperidine-4-carboxylic acid, Sodium salt]: 1.26 nM; for `Cc1cc(C2CCN(CC(F)(F)F)CC2)ccc1COc1c(F)cc(F)cc1-c1cccc(N2CCC(C(=O)O)CC2)n1` [Example 5, 1-(6-(3,5-difluoro-2-((2-methyl-4-(1-(2,2,2-trifluoroethyl)piperidin-4-yl)benzyl)oxy)phenyl)pyridin-2yl)piperidine-4-carboxylic acid]: 0.501 nM.
On to `Cc1cc(C2CCN(C(=O)CC3COC3)CC2)ccc1COc1c(F)cc(F)cc1-c1cccc(N2CCC(C(=O)O)CC2)n1` [Example 76, 1-(6-(3,5-difluoro-2-((2-methyl-4-(1-(2-(oxetan-3-yl)acetyl)piperidin-4-yl)benzyl)oxy)phenyl)pyridin-2-yl)piperidine-4-carboxylic acid, Sodium salt], for which the EC50 is 1 nM.
With `Cc1cc(C2CCN(C(=O)C3CCOC3)CC2)ccc1COc1c(F)cc(F)cc1-c1cccc(N2CCC(C(=O)O)CC2)n1` (stereo not drawn) [Example 69, 1-(6-(3,5-difluoro-2-((2-methyl-4-(1-(tetrahydrofuran-3-carbonyl)piperidin-4-yl)benzyl)oxy)phenyl)pyridin-2-yl)piperidine-4-carboxylic acid, Sodium salt], the EC50 was 0.251 nM.
As for `Cc1nc(C2CCN(C(=O)CO)CC2)ccc1COc1c(F)cc(F)cc1-c1cccc(N2CCC(C(=O)O)CC2)n1` [Example 33, 1-(6-(3,5-difluoro-2-((6-(1-(2-hydroxyacetyl)piperidin-4-yl)-2-methylpyridin-3-yl)methoxy)phenyl)pyridin-2-yl)piperidine-4-carboxylic acid, Sodium salt], the EC50 is 15.8 nM.
The same measure for `Cc1cc(C2CCN(C3CCOC3)CC2)ccc1COc1c(F)cc(F)cc1-c1cccc(N2CCC(C(=O)O)CC2)n1` (stereo not drawn) [Example 42, 1-(6-(3,5-difluoro-2-((2-methyl-4-(1-(tetrahydrofuran-3-yl)piperidin-4-yl)benzyl)oxy)phenyl)pyridin-2-yl)piperidine-4-carboxylic acid, Sodium salt]: 2.51 nM; for `Cc1cc(C2CCN(CCC(F)(F)F)CC2)ccc1COc1c(F)cc(F)cc1-c1cccc(N2CCC(C(=O)O)CC2)n1` [Example 54, 1-(6-(3,5-difluoro-2-((2-methyl-4-(1-(3,3,3-trifluoropropyl)piperidin-4-yl)benzyl)oxy)phenyl)pyridin-2-yl)piperidine-4-carboxylic acid, Sodium salt]: 2.51 nM.
